What was measured:
Assay type in all cases: functional
[1] = tested on: Malme-3M; test: Growth inhibition of human MALME-3M cells assessed as cell growth at 10 uM incubated for 48 hrs by sulforhodamine B assay relative to control; settings: read-out: Activity
[2] = tested on: RXF 393; test: Growth inhibition of human RXF393 cells assessed as cell growth at 10 uM incubated for 48 hrs by sulforhodamine B assay relative to control; settings: RXF 393, 48 h, read-out: Activity
[3] = tested on: SW-620; test: Growth inhibition of human SW620 cells assessed as cell growth at 10 uM incubated for 48 hrs by sulforhodamine B assay relative to control; settings: SW-620, 48 h, read-out: Activity
[4] = tested on: 786-0; test: Growth inhibition of human 786-0 cells assessed as cell growth at 10 uM incubated for 48 hrs by sulforhodamine B assay relative to control; settings: 786-0, 48 h, read-out: Activity
[5] = tested on: SK-MEL-5; test: Growth inhibition of human SK-MEL-5 cells assessed as cell growth at 10 uM incubated for 48 hrs by sulforhodamine B assay relative to control; settings: SK-MEL-5, 48 h, read-out: Activity
[6] = tested on: HCT-116; test: Growth inhibition of human HCT116 cells assessed as cell growth at 10 uM incubated for 48 hrs by sulforhodamine B assay relative to control; settings: HCT-116, 48 h, read-out: Activity
[7] = tested on: OVCAR-3; test: Growth inhibition of human OVCAR3 cells assessed as cell growth at 10 uM incubated for 48 hrs by sulforhodamine B assay relative to control; settings: OVCAR-3, 48 h, read-out: Activity
[8] = tested on: UO-31; test: Growth inhibition of human UO31 cells assessed as cell growth at 10 uM incubated for 48 hrs by sulforhodamine B assay relative to control; settings: UO-31, 48 h, read-out: Activity
[9] = tested on: HL-60(TB); test: Growth inhibition of human HL-60(TB) cells assessed as cell growth at 10 uM incubated for 48 hrs by sulforhodamine B assay relative to control; settings: HL-60, 48 h, read-out: Activity
[10] = tested on: CCRF-CEM; test: Growth inhibition of human CCRF-CEM cells assessed as cell growth at 10 uM incubated for 48 hrs by sulforhodamine B assay relative to control; settings: read-out: Activity
[11] = tested on: OVCAR-8; test: Growth inhibition of human OVCAR8 cells assessed as cell growth at 10 uM incubated for 48 hrs by sulforhodamine B assay relative to control; settings: OVCAR-8, 48 h, read-out: Activity
[12] = tested on: PC-3; test: Growth inhibition of human PC3 cells assessed as cell growth at 10 uM incubated for 48 hrs by sulforhodamine B assay relative to control; settings: PC-3, 48 h, read-out: Activity
[13] = tested on: SF-539; test: Growth inhibition of human SF539 cells assessed as cell growth at 10 uM incubated for 48 hrs by sulforhodamine B assay relative to control; settings: SF-539, 48 h, read-out: Activity
[14] = tested on: MDA-MB-231; test: Growth inhibition of human MDA-MB-231 cells assessed as cell growth at 10 uM incubated for 48 hrs by sulforhodamine B assay relative to control; settings: MDA-MB-231, 48 h, read-out: Activity
[15] = tested on: NCI/ADR-RES; test: Growth inhibition of human NCI/ADR-RES cells assessed as cell growth at 10 uM incubated for 48 hrs by sulforhodamine B assay relative to control; settings: read-out: Activity
[16] = tested on: SK-MEL-28; test: Growth inhibition of human SK-MEL-28 cells assessed as cell growth at 10 uM incubated for 48 hrs by sulforhodamine B assay relative to control; settings: SK-MEL-28, 48 h, read-out: Activity
[17] = tested on: MDA-MB-468; test: Growth inhibition of human MDA-MB-468 cells assessed as cell growth at 10 uM incubated for 48 hrs by sulforhodamine B assay relative to control; settings: MDA-MB-468, 48 h, read-out: Activity
[18] = tested on: U-251; test: Growth inhibition of human U251 cells assessed as cell growth at 10 uM incubated for 48 hrs by sulforhodamine B assay relative to control; settings: U-251, 48 h, read-out: Activity
[19] = tested on: RPMI-8226; test: Growth inhibition of human RPMI8226 cells assessed as cell growth at 10 uM incubated for 48 hrs by sulforhodamine B assay relative to control; settings: RPMI-8226, 48 h, read-out: Activity
[20] = tested on: SN12C; test: Growth inhibition of human SN12C cells assessed as cell growth at 10 uM incubated for 48 hrs by sulforhodamine B assay relative to control; settings: read-out: Activity
[21] = tested on: NCI-H23; test: Growth inhibition of human NCI-H23 cells assessed as cell growth at 10 uM incubated for 48 hrs by sulforhodamine B assay relative to control; settings: NCI-H23, 48 h, read-out: Activity
[22] = tested on: KM12; test: Growth inhibition of human KM12 cells assessed as cell growth at 10 uM incubated for 48 hrs by sulforhodamine B assay relative to control; settings: KM12, 48 h, read-out: Activity
[23] = tested on: SK-OV-3; test: Growth inhibition of human SKOV3 cells assessed as cell growth at 10 uM incubated for 48 hrs by sulforhodamine B assay relative to control; settings: SK-OV-3, 48 h, read-out: Activity
[24] = tested on: HOP-62; test: Growth inhibition of human HOP62 cells assessed as cell growth at 10 uM incubated for 48 hrs by sulforhodamine B assay relative to control; settings: HOP-62, 48 h, read-out: Activity
[25] = tested on: HOP-92; test: Growth inhibition of human HOP92 cells assessed as cell growth at 10 uM incubated for 48 hrs by sulforhodamine B assay relative to control; settings: HOP-92, 48 h, read-out: Activity

| SMILES | growth at 10 µM [1] [%] | growth at 10 µM [2] [%] | growth at 10 µM [3] [%] | growth at 10 µM [4] [%] | growth at 10 µM [5] [%] | growth at 10 µM [6] [%] | growth at 10 µM [7] [%] | growth at 10 µM [8] [%] | growth at 10 µM [9] [%] | growth at 10 µM [10] [%] | growth at 10 µM [11] [%] | growth at 10 µM [12] [%] | growth at 10 µM [13] [%] | growth at 10 µM [14] [%] | growth at 10 µM [15] [%] | growth at 10 µM [16] [%] | growth at 10 µM [17] [%] | growth at 10 µM [18] [%] | growth at 10 µM [19] [%] | growth at 10 µM [20] [%] | other results |
| --- | --- | --- | --- | --- | --- | --- | --- | --- | --- | --- | --- | --- | --- | --- | --- | --- | --- | --- | --- | --- | --- |
| COc1cc2cc(Oc3ccc(NC(=O)Nc4ccccc4)cc3)c(C)nc2cc1OC | 86.4 | 76.7 | 105 | 94.8 | 60.8 | 42.6 | 67.1 | 65.9 | 70.5 | 55.2 | 71.9 | 60.4 | 78 | 80 | 84.3 | 96.2 | 35.3 | 48 | 38.8 | 70.7 | growth at 10 µM [21]: 87.2%; growth at 10 µM [22]: 70.3%; growth at 10 µM [23]: 48.4%; growth at 10 µM [24]: 103% |
| COc1cc2cc(Oc3ccc(NC(=O)Nc4ccc(C)cc4)cc3)c(C)nc2cc1OC | 94.6 | 82.1 | 107 | 126 | 100 | 107 | 113 | 89.2 | 93 | 101 | 87.4 | 94.5 | 108 | 85.6 | 107 | 109 | 97.1 | 99.9 | 101 | 93 | growth at 10 µM [21]: 95.5%; growth at 10 µM [22]: 104%; growth at 10 µM [23]: 87.8%; growth at 10 µM [24]: 66.9% |
| COc1cc2cc(Oc3ccc(NC(=O)Nc4ccc(C(F)(F)F)cc4)cc3)c(C)nc2cc1OC | 82.9 | 6.29 | 75.3 | 74.9 | 47.4 | 47.2 | 67 | 87.6 | 75.2 | 68.5 | 37.8 | 48.3 | 96.9 | 80.9 | 64.1 | 58.4 | 40.1 | 15 | 52.7 | 72.2 | growth at 10 µM [25]: 56.3%; growth at 10 µM [21]: 79.3%; growth at 10 µM [22]: 64.4%; growth at 10 µM [23]: 38.8%; growth at 10 µM [24]: 18.8% |

— ChEMBL document CHEMBL3994622, “Design and synthesis of new RAF kinase-inhibiting antiproliferative quinoline derivatives. Part 2: Diarylurea derivatives” (Eur J Med Chem, 2017)
